In patent US5098996A, “Process for introducing fluorine into biologically active materials” (The United States of America as represented by the …, priority 1988, dated 1992):

Tests used:
[1] = system: insulin-antibody; assay: insulin-antibody binding assay
Procedure: N^α,A1,N^ε,B29 (BOC)2 insulin, 537 mg, […], was dissolved in 500 ml DMSO. FMB-Gly-OAS, 120 mg, 390 mmole in 20 ml DMSO, and 24.5 mg, 390 mmole in 2.5 ml DMSO , and 4-ethyl morpholine, 100 mg, 870 mmole in 10 ml DMSO, were added, and the reaction was allowed to remain at rom temperature for eighteen hours. The reaction was monitored by RP-HPLC until completion. One pure product was obtained, Rt=26 minutes . The eluting solvents were A, 0.1% TFA in water; B, 0.1% TFA in acetonitrile. Elution was made from 25% B to 80% in 45 minutes. The solution was lyophilized, and 50 ml neat TFA was added for five minutes, and then evaporated. The product reacted in an insulin-antibody binding assay.

[2] = target: T1, substance P receptor (Rattus norvegicus, UniProt P14600); assay: competitive binding assay, substance P receptor, rat brain
T1 construct: from tissue; host or cells: rat brain (per the earlier reading)
T1 sequence (P14600 whole entry): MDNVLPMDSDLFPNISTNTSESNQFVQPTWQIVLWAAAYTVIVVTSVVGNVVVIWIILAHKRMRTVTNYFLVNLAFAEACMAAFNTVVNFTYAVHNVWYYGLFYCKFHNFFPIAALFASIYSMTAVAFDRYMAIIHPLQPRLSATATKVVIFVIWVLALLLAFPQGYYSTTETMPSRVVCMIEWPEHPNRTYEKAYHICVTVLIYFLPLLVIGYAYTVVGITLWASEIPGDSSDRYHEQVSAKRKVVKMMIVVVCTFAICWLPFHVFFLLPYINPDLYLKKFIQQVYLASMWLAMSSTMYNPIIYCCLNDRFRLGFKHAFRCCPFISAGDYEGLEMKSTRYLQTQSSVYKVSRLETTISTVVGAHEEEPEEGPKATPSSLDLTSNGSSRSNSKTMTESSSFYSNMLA

Q: For “FMB-Gly-Insulin: Insulin acylated with FMB-Gly active ester from N^α,A1,N^ε,B29 (BOC)2 insulin, then TFA deprotected”, which “reaction in insulin-antibody binding assay” value [1] is on record?
A: reacted

Q: “N^αFMBArgProLysProGlnGlnPhePheGlyLeuMetNH2 [Compound 29]” was tested. Which Ki [2] did it give?
A: 1 nM
